Results from patent US20210405030A1, “MEANS AND METHODS FOR DETERMINING METABOLIC ADAPTATION” (EnFin GmbH, priority 2018, published 2021).
Where two headings read alike, the source gives them in different places. Square brackets hold non-standard residues; d marks the D form. Ends that are not written are not given here. pY = N[C@@H](Cc1ccc(OP(=O)(O)O)cc1)C(=O)O

Tests used:
[1] = test system: Healthy blood donor mononuclear lymphocytes; settings: for Blood test result: reference interval 2.0±0.3
Description: The cellular model used herein discriminates between an immuno activating environment and an immune suppressive environment. An immuno activating environment comprises supplementation of growth factors/serum and allows growth and survival of blood derived immune cells. An immuno suppressive environment comprises deprivation of growth factors/serum (starvation) and diminishes growth and survival of blood derived immune cells. […] In both conditions a switch to anaerobic glycolysis was induced pharmacologically and proliferation and survival of immune cells was compared to unmodified immune cells.
Healthy blood donor mononuclear lymphocytes were cultured under normoxia (21%) and anoxia (0%). Enzyme activities of PK low affinity (PK la), PK high affinity (PK ha) and Lactate dehydrogenase (LDH) were measured in the homogenates.

PBMCs = experiment: Proliferation and survival of PBMCs in immuno activating (10% FCS) or immuno suppressive (starvation) environment (FIG. 1); assay type: cell-based, human; settings: for proliferation and survival: GM-CSF 20 ng/ml, HMGB1 variants 200 nM
Protocol: FIG. 1: Proliferation of PBMCs under the indicated conditions; P-M2 tide: induction of glycolysis by incubation with P-M2 tide; A) control (no activator compound); B) hGM-CSF added; C) to G) HMGB1 or variant thereof added.
To evaluate to what extent and by which agent anerg immune cells could be stimulated we used recombinant human GM-CSF (20 ng/ml, FIG. 1 B) or recombinant/synthetic variants of the immune system stimulating human HMGB1 cytokine (200 nM, FIG. 1 C-G).

For GGAVDDD[pY]AQFANGG [P-M2 tide], the Blood test result ([1]; 10% FCS (immuno activating environment) + P-M2 tide) was 0.30, the “shift from OXPHOS to anaerobic glycolysis” value ([1]; ex vivo human immune cells, blocking the PK tetramer) was “enables immune cells to shift from OXPHOS to anaerobic glycolysis” and the Blood test result ([1]; starvation (immune suppressive environment) + P-M2 tide) was 1.37.

With “GM-CSF: human granulocyte monocyte colony stimulating factor, recombinant” the proliferation and survival (PBMCs; immuno-suppressed (starved) cells showing a switch to anaerobic glycolysis) was “fully rescued from cell death and showed increased proliferation (and survival)” and the proliferation and survival (PBMCs; immuno-suppressed (starved) cells with no switch to anaerobic glycolysis) was “partly rescued”.

B1: Wildtype human recombinant HMGB1: high mobility group box 1 protein, immuno-stimulating cytokine and DAMP (SEQ ID NO:3) (protein, listed as Homo sapiens)
chain: MGKGDPKKPRGKMSSYAFFVQTCREEHKKKHPDASVNFSEFSKKCSERWKTMSAKEKGKFEDMAKADKARYEREMKTYIPPKGETKKKFKDPNAPKRPPSAFFLFCSEYRPKIKGEHPGLSIGDVAKKLGEMWNNTAADDKQPYEKKAAKLKEKYEKDIAAYRAKGKPDAAKKGVVKAEKSKKKKEEEEDEEDEEDEEEEEDEEDEDEEEDDDDE
With B1 the “proliferation and survival of immune cells” value (PBMCs; 200 nM, condition not further specified) was “failed to increase proliferation and survival”.
